This note sets out measurements from US12495798B2, “Nicotinamide compound and herbicidal composition comprising compound” (KOREA RESEARCH INSTITUTE OF CHEMICAL TECHNOLOGY, priority 2019, dated 2025).

Common to all, as to format: in vivo
One series relates to velvetleaf. Description: Herbicidal activity test against upland field weeds (foliar treatment test). Also noted: key to Foliar treatment herbicidal activity, velvet leaf: 0 (no control); 100 (complete control). Conditions: 50 g ai/ha; for pest or weed control at 50 g/ha: Abutilon theophrasti, scale 0-100, read-out: Foliar treatment herbicidal activity, velvet leaf. The procedure: (§1) Experimental Example 1: Herbicidal Activity Test Against Upland Field Weeds (Foliar Treatment Test) Foliar treatment was performed as follows: After filling a square plastic pot having a surface area of 350 cm^2 with horticultural soil, seeds (10˜15 grains) or rootstocks (2 pieces) of 5 kinds of grassy weeds of sorghum, barnyard grass, quack grass, crabgrass, fall panicum, and 5 kinds of broadleaf weeds of black nightshade, indian jointvetch, velvetleaf, cocklebur, bindweed, which had been stored in a low temperature (6° C.), were sown. After growing for a certain period in greenhouse conditions (average temperature 30±5° C., light/dark=14/10 hours), test compound solutions were made by diluting with a preparation solution (including 50% acetone, 0.1% Tween-20) so that the final treatment amount of the test compounds was 50 or 75 g a.i./ha. The prepared test compound solution was used for treating foliage by hand-spraying 14 mL per pot in a fume hood. After the treatment, it was managed under the same greenhouse conditions as above, and after 14 days (after 21 days if necessary), the external symptoms and efficacy were investigated according to the scale of 0 (no control) to 100 (complete control). The results of Table 7 were obtained by evaluating weed control value to the untreated control by conducting visual assessment.

The next series has as its system crabgrass. Described as above. Also noted: key to Foliar treatment herbicidal activity, Crabgrass: 0 (no control); 100 (complete control). To be noted: 50 g ai/ha, scale 0-100; for pest or weed control at 50 g/ha: Digitaria sanguinalis. Here is the method:
as §1

The next series deals with indian jointvetch. Described as above. Also noted: key to Foliar treatment herbicidal activity, Indian jointvetch: 0 (no control); 100 (complete control). To be noted: 50 g ai/ha, scale 0-100. The procedure: as §1
A further series deals with barnyard grass. Described as above. Also noted: key to Foliar treatment herbicidal activity, barnyard grass: 0 (no control); 100 (complete control). To be noted: 50 g ai/ha, scale 0-100; for pest or weed control at 50 g/ha: Echinochloa crus-galli. Here is the method:
as §1

The test system of a further series is wheat. Nature of the series: Phytotoxicity test for upland field crops (foliar treatment test). Also noted: key: 0 (no harm); 9 (complete withered). The procedure:
(§2) Experimental Example 3: Phytotoxicity Test for Upland Field Crops (Foliar Treatment Test)
(§3) Foliar treatment was performed for grown crops and weeds in a square plastic pot having a surface area of 50 cm^2 filled with horticultural soil. As a fertilizer per pot, 0.5 g of horticultural mixed fertilizer (N:P:K=17:21:17) was treated by mixing in the upper soil. Five kinds of crops such as rice, wheat, corn, soybean, and cotton were sown in each pot, and after growing for a certain period in greenhouse conditions (average temperature 30±5° C., light/dark=14/10 hours), test compound solutions were made by diluting with the diluent (33% acetone, 0.1% Tween-20) so that the final treatment amount of the test compounds was 19˜300 g a.i./ha. The prepared test compound solutions were treated using a spray booth (SB6-016) at a treatment amount of 100 ml per 1 m^2 of treatment area. The treated plants were managed under the same greenhouse conditions as above, and external symptoms and phytotoxicity were investigated 7 and 14 days after treatment (after 21 days if necessary). In the evaluation of the phytotoxicity for the crop, the grade of 0 (no harm) to 9 (complete withered) was used. The results of Table 9 were obtained by evaluating crop phytotoxicity value to the untreated control.

A further series concerns corn. The description is as above. Also noted: key: 0 (no harm); 9 (complete withered). The procedure:
as §2, §3

For another series, the system named is black nightshade. Description: Herbicidal activity test against upland field weeds (foliar treatment test). Also noted: key to Foliar treatment herbicidal activity, black nightshade: 0 (no control); 100 (complete control). To be noted: 50 g ai/ha, scale 0-100; for pest or weed control at 50 g/ha: Solanum nigrum. The procedure:
as §1

In the next series the test system is fall panicum. Described as above. Details: key to Foliar treatment herbicidal activity, Fall panicum: 0 (no control); 100 (complete control). Conditions: 50 g ai/ha, scale 0-100; for pest or weed control at 50 g/ha: Panicum dichotomiflorum. Here is the method: as §1
In a further series the test system is cocklebur. The description is as above. Conditions: Xanthium strumarium, 50 g ai/ha, scale 0-100. Here is the method:
as §1

Another series concerns quack grass. The description is as above. Also noted: key to Foliar treatment herbicidal activity, quack grass: 0 (no control); 100 (complete control). To be noted: 50 g ai/ha, scale 0-100. The procedure: as §1
The test system of another series is bindweed. The description is as above. To be noted: 50 g ai/ha, scale 0-100. Also noted: key to Foliar treatment herbicidal activity, Bindweed: 0 (no control); 100 (complete control). The procedure: as §1
Another series has as its system sorghum. The series is described as above. Details: key to Foliar treatment herbicidal activity, Sorghum: 0 (no control); 100 (complete control). Conditions: 50 g ai/ha, scale 0-100; for plant injury at 50 g/ha: Sorghum. The procedure:
as §1

SMILES strings stand for the structures.

Regarding `CCCn1nnnc1NC(=O)c1ccc(C(F)(F)F)nc1COCc1ncn(C)n1` [Compound No. 2-114, 2-(((1-methyl-1H-1,2,4-triazol-3-yl)methoxy)methyl)-N-(1-propyl-1H-tetrazol-5-yl)-6-(trifluoromethyl)nicotinamide], the pest or weed control at 50 g/ha with velvetleaf came out at 70%; in the series with indian jointvetch it was 20%; in the series with barnyard grass it was 60%; with black nightshade it was 95%; in the series on fall panicum, 40%; with cocklebur it was 90%. The pest or weed control at 50 g/ha was 10% with quack grass and 80% in the series on bindweed. In the series on crabgrass, the “Foliar treatment herbicidal activity, Crabgrass” value is reported as 0. Further, the “Foliar treatment phytotoxicity, Wheat” value came to 1 with wheat (50 g ai/ha, Wheat (7 days after treatment)); 0 with wheat (50 g ai/ha, Wheat (14 days after treatment)); 2 in the series on wheat (100 g ai/ha, Wheat (7 days after treatment)); 1 in the series with wheat (100 g ai/ha, Wheat (14 days after treatment)). The “Foliar treatment phytotoxicity, Corn” value is reported as 1 in the series with corn (50 g ai/ha, Corn (7 days after treatment)); 0 in the series on corn (50 g ai/ha, Corn (14 days after treatment)); 2 with corn (100 g ai/ha, Corn (7 days after treatment)); 0 in the series on corn (100 g ai/ha, Corn (14 days after treatment)). In the series on sorghum, the “Foliar treatment herbicidal activity, Sorghum” value came out at 0.

`Cn1nnnc1NC(=O)c1ccc(C(F)(F)F)nc1COCc1nnn(C(F)F)n1` [Compound No. 2-92, 2-(((2-(difluoromethyl)-2H-tetrazol-5-yl)methoxy)methyl)-N-(1-methyl-1H-tetrazol-5-yl)-6-(trifluoromethyl)nicotinamide]: the pest or weed control at 50 g/ha came out at 80% in the series on velvetleaf; 20% with crabgrass; 70% in the series with indian jointvetch; 40% in the series with fall panicum; 70% in the series with cocklebur; 70% with bindweed. Moreover, the “Foliar treatment herbicidal activity, barnyard grass” value with barnyard grass stood at 0. Further, in the series on black nightshade, the “Foliar treatment herbicidal activity, black nightshade” value is on record as 100. Besides, the “Foliar treatment herbicidal activity, quack grass” value in the series with quack grass worked out at 0. Further, the “Foliar treatment herbicidal activity, Sorghum” value with sorghum is on record as 0.

With `Cn1nnnc1COc1nc(C(F)(F)F)ccc1C(=O)Nc1nnnn1C(F)F` [Compound No. 1-4, N-(1-(difluoromethyl)-1H-tetrazol-5-yl)-2-((1-methyl-1H-tetrazol-5-yl)methoxy)-6-(trifluoromethyl)nicotinamide], the pest or weed control at 50 g/ha worked out at 20% in the series with velvetleaf; 20% with indian jointvetch; 80% in the series on black nightshade; 60% with cocklebur; 20% in the series on bindweed. In addition, the “Foliar treatment herbicidal activity, Crabgrass” value in the series with crabgrass is reported as 0. Further, the “Foliar treatment herbicidal activity, barnyard grass” value in the series with barnyard grass was 0. In addition, the “Foliar treatment herbicidal activity, Fall panicum” value with fall panicum worked out at 0. Moreover, in the series on quack grass, the “Foliar treatment herbicidal activity, quack grass” value stood at 0. The “Foliar treatment herbicidal activity, Sorghum” value with sorghum was 0.

Take `Cn1nnnc1COc1nc(Cl)ccc1C(=O)Nc1nnnn1C` [Compound No. 1-20, 6-chloro-N-(1-methyl-1H-tetrazol-5-yl)-2-((1-methyl-1H-tetrazol-5-yl)methoxy)nicotinamide]: the “Foliar treatment herbicidal activity, velvet leaf” value in the series with velvetleaf (scale 0-100) came to 0. The “Foliar treatment herbicidal activity, Crabgrass” value in the series with crabgrass was determined as 0. The “Foliar treatment herbicidal activity, Indian jointvetch” value in the series on indian jointvetch is reported as 0. Further, the “Foliar treatment herbicidal activity, barnyard grass” value with barnyard grass worked out at 0. Moreover, the pest or weed control at 50 g/ha in the series on black nightshade was found to be 50%; in the series on cocklebur, 20%. In addition, the “Foliar treatment herbicidal activity, Fall panicum” value in the series on fall panicum came out at 0. The “Foliar treatment herbicidal activity, quack grass” value in the series with quack grass was determined as 0. The “Foliar treatment herbicidal activity, Bindweed” value with bindweed is reported as 0. In the series on sorghum, the “Foliar treatment herbicidal activity, Sorghum” value came out at 0.

Take `CCN(Cc1nnn(C)n1)Cc1nc(C(F)(F)F)ccc1C(=O)Nc1nnnn1C` [Compound No. 2-94, 2-((ethyl((2-methyl-2H-tetrazol-5-yl)methyl)amino)methyl)-N-(1-methyl-1H-tetrazol-5-yl)-6-(trifluoromethyl)nicotinamide]: the pest or weed control at 50 g/ha in the series on velvetleaf amounted to 60%; in the series with indian jointvetch it was 60%; with cocklebur, 60%; with bindweed it was 30%. For the same compound, the “Foliar treatment herbicidal activity, Crabgrass” value in the series on crabgrass is on record as 0. The “Foliar treatment herbicidal activity, barnyard grass” value in the series with barnyard grass is recorded as 0. Moreover, the “Foliar treatment herbicidal activity, black nightshade” value in the series on black nightshade is on record as 100. Further, the “Foliar treatment herbicidal activity, Fall panicum” value in the series with fall panicum is on record as 0. For the same compound, the “Foliar treatment herbicidal activity, quack grass” value in the series on quack grass is 0. Also, the “Foliar treatment herbicidal activity, Sorghum” value in the series on sorghum turned out to be 0.

In the case of `CN(C)c1nc(COCc2nc(C(F)(F)F)ccc2C(=O)Nc2nnnn2C)nn1C` [Compound No. 2-133, 2-(((5-(dimethylamino)-1-methyl-1H-1,2,4-triazol-3-yl)methoxy)methyl)-N-(1-methyl-1H-tetrazol-5-yl)-6-(trifluoromethyl)nicotinamide], the pest or weed control at 50 g/ha turned out to be 80% in the series on velvetleaf; 98% in the series with crabgrass; 95% with indian jointvetch; 90% in the series on barnyard grass; 80% in the series with fall panicum; 95% in the series on cocklebur. The pest or weed control at 50 g/ha in the series on bindweed turned out to be 90%. Moreover, the “Foliar treatment herbicidal activity, black nightshade” value with black nightshade amounted to 100. In the series with quack grass, the “Foliar treatment herbicidal activity, quack grass” value amounted to 0. The compound further yielded a plant injury at 50 g/ha in the series on sorghum of 20%.

Consider `Cn1nnnc1NC(=O)c1ccc(C(F)(F)F)nc1COc1nnnn1C` [Compound No. 1-115, N-(1-methyl-1H-tetrazol-5-yl)-2-(((1-methyl-1H-tetrazol-5-yl)oxy)methyl)-6-(trifluoromethyl)nicotinamide], for which the pest or weed control at 50 g/ha is 40% in the series on velvetleaf; 40% in the series with indian jointvetch; 30% with barnyard grass; 95% in the series on black nightshade; 80% with cocklebur; 80% with bindweed. For the same compound, the “Foliar treatment herbicidal activity, Crabgrass” value with crabgrass was 0. Moreover, the “Foliar treatment herbicidal activity, Fall panicum” value with fall panicum is 0. For the same compound, the “Foliar treatment herbicidal activity, quack grass” value in the series with quack grass was found to be 0. Besides, the “Foliar treatment herbicidal activity, Sorghum” value in the series on sorghum was found to be 0.

For the compound `Cn1nnnc1NC(=O)c1ccc(C(F)(F)F)nc1COCc1nc(OCC(F)(F)F)n(C)n1` [Compound No. 2-130, N-(1-methyl-1H-tetrazol-5-yl)-2-(((1-methyl-5-(2,2,2-trifluoroethoxy)-1H-1,2,4-triazol-3-yl)methoxy)methyl)-6-(trifluoromethyl)nicotinamide], the pest or weed control at 50 g/ha in the series on velvetleaf turned out to be 50%; in the series on crabgrass, 90%; with indian jointvetch it was 60%; in the series on barnyard grass, 95%; in the series on black nightshade, 98%; in the series on fall panicum, 70%. For the same compound, the pest or weed control at 50 g/ha turned out to be 60% in the series on cocklebur and 70% in the series with bindweed. The “Foliar treatment herbicidal activity, quack grass” value in the series with quack grass was 0. This compound also yielded a plant injury at 50 g/ha in the series on sorghum of 30%.

A word on the plant injury: it is the degree to which the test organism was suppressed or injured, in per cent.
